“Also recorded” adds a separate entry of the source.
What was measured:
silicon wafer implants = settings: 24 hours; cited from earlier work
[1] = target: T1, PKC-ε phosphorylation of Cx43-CT substrate at Ser368 (Rattus norvegicus, UniProt P08050); experiment: PKC-ε Cx43 CT S368 phosphorylation assay; format: biochemical; settings: peptides at 20 μM
T1 construct: substrate (Cx43-CT: amino acids 255 to 382); GST (N); made in house; host or cells: E. coli BL21 (Cx43 CT); PKC-ε purchased (Life, 37717L)
T1 sequence (P08050 255-382): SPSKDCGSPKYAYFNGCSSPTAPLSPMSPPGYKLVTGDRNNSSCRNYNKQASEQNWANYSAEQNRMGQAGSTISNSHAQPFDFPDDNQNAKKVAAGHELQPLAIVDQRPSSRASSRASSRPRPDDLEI
Method: PKC assay conditions were used to evaluate the PKC-ε phosphorylation of Cx43-CT substrate at Ser368 as we have described previously, with modifications 11. 400 ng/ml […] (Life, 37717L, Carlsbad, CA) was pre-diluted in enzyme dilution buffer (10 mM HEPES pH7.4, 0.01% CHAPS and 5 mM DTT) and assayed in 20 mM HEPES pH7.4, 10 mM/L MgCl2, 0.1 mM EGTA, 1× lipid mix (200 μg/ml phosphatidylserine (Avanti Polar Lipids 840032C),^20 μg/ml Diacylglycerol (Avanti Polar Lipids), 1 mM HEPES pH7.4, 0.03% CHAPS), 500 µM ATP (Sigma, A6419) and 14 μg/ml Cx43-CT substrate. Kinase assay buffer was supplemented with peptides to produce final concentrations of the reaction constituents, as indicated in figure legends. The mixture was incubated at 37° C. for 12 minutes and quenched by addition of LDS sample loading buffer (Bio Rad, 1610791). “XT sample buffer” is what was shown on the product label, whereas the component is similar as regular LDS buffer, containing about 5-10% lithium dodecyl sulphate. The reaction was Western blotted for pS368 Cx43 using the Phospho-Connexin43 (Ser368) antibody from Cell Signaling. Proteins were eluted off by stripping buffer (Millipore 2504) and re-probed for total Cx43 using the Sigma anti-rabbit antibody. Percent phosphorylation (% P) was quantified using Equation 1 and normalized with control group (PKC+, no peptide added).

[2] = target: T2, Cx43 CT (amino acids 255 to 382) (Rattus norvegicus, UniProt P08050); experiment: Surface plasmon resonance, Cx43 CT analyte; format: binding; settings: biotin-peptide immobilized on streptavidin chip; analyte 0.5 to 15 μM
T2 construct: Cx43-CT: amino acids 255 to 382; GST (N, cleaved yes); made in house; host or cells: E. coli BL21
T2 sequence (P08050 255-382): as above
Method: (§1) Efficacy of the interaction of each alpha CT1 variant with Cx43 CT or Cx43 CT-KK/QQ was tested using surface plasmon resonance (SPR) as described previously 20. In brief, SPR experiments were performed using a Biacore T200 (GE Healthcare). Equal amounts (response units/RU) of biotin-alpha CT1 variants were immobilized on each flow cell of a streptavidin-coated sensor chip (Biacore Inc) using immobilization buffer (in mM: 10 HEPES, 1 EDTA, 100 NaCl, 0.005% Tween-20) at pH 7.4. Measurements with wild-type (wt) Cx43 CT and mutant Cx43 CT-KK/QQ analytes were done in running buffer (in mM: 10 HEPES, 100 NaCl, pH 7.4) at a flow rate of 30 μl/min. Binding of analytes were verified at different concentrations, in random order (injection volume 120 μl). Interacting proteins were then unbound by injection of […] regeneration buffer (50 mM NaOH and 1 M NaCl) at a flow rate of 10 μl/min. Background levels were obtained from a reference cell containing a biotin-control peptide in which the reversed sequence of the last 9 amino acids of Cx43 was fused to biotin-antennapedia. The RU values obtained with biotin-control peptide were subtracted from the RU values obtained with the different biotin-alphaCT1 variants (wild-type or mutant) to generate the different response curves.

Cx43 CT = target: T3, Cx43 CT (Rattus norvegicus, UniProt P08050); experiment: Protein thermal shift assay, Cx43 CT; format: binding; settings: 500 μg/ml protein, 25-100 μM peptide
T3 construct: CT: amino acids 255 to 382) alone; GST (N); made in house; host or cells: E. coli BL21
T3 sequence (P08050 255-382): as above
Method: (§2) Thermal stability of recombinant GST-PDZ2 or Cx43 CT in the presence or absence of peptides was determined in a 96-well format. Each assay well was composed of 500 μg/ml protein, 25-100 μM of each peptide in PBS buffer, pH7.4. All assays were performed independently six times. Samples were generally prepared in 96-well plates at final volumes of 20 μL. The fluorescent dye SYPRO Orange (5000× concentrate in DMSO, ThermoFisher, S6650) was added to a final concentration of 8X. Reactions were run on QuantStudio 6 Flex Real-Time PCR system (Applied Biosystems, part of Life Technologies Corporation, CA) according to the manufacturer's recommendations using a melt protocol in 0.05-degree/see increments from 25° C. to 95° C. The Reporter Dye was “ROX” and quencher Dye and passive reference were selected as “None” for the melt curve according to manufacturer's instructions. The data were analyzed using Protein Thermal Shift™ Software v1.3 package (Applied Biosystems, CA).

ZO-1 PDZ2 = target: T4, ZO-1 PDZ2 (Homo sapiens, UniProt Q07157); experiment: Protein thermal shift assay, ZO-1 PDZ2; format: binding; settings: 500 μg/ml protein, 25-100 μM peptide
T4 construct: the second of the three PDZ (PDZ2) domains of ZO-1; made in house; host or cells: E. coli BL21
T4 sequence (Q07157 186-264 limits assumed): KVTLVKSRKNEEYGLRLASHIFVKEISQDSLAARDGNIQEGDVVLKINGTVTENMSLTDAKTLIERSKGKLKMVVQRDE
Method: as §2

Cx43 CT-KK/QQ = target: T5, Cx43 CT-KK/QQ (Rattus norvegicus, UniProt P08050, K345Q/K346Q); experiment: Surface plasmon resonance, Cx43 CT-KK/QQ analyte; format: binding; settings: biotin-peptide immobilized on streptavidin chip
T5 construct: pGEX-6-P2 Cx43 CT amino acids 255-382; GST (N, cleaved yes); made in house; host or cells: E. coli BL21
T5 sequence (P08050 255-382 K345Q/K346Q): as the sequence (P08050 255-382) above, with K91Q, K92Q counted along it
Excerpt: Peptides were synthesized and quality checked for fidelity and purity using High Performance Liquid Chromatography and mass spectrometry (LifeTein, Hillsborough, NJ). Biotinylated peptides were designed for surface plasmon resonance experiments. Glutathione-S-Transferase (GST) fusion protein constructs composed of the Cx43-CT (pGEX-6-P2 Cx43 CT amino acids 255-382), ZO-1 PDZ1, PDZ2 and PDZ3 were isolated and purified from isopropyl-b-D-thiogalactoside (IPTG)-induced BL21 bacteria using standard procedures, described in references 13, 14, 20. The pGEX6p2-Cx43 CT plasmid was obtained from Prof. Paul L. Sorgen (University of Nebraska Medical Center, USA). Cx43 CT mutant (Cx43 CT-KK/QQ; amino acids Lys345 Lys346 to Gln 345 Gln 346) was developed by site-directed mutagenesis of the pGEX6p2-Cx43 CT plasmid (Agilent technologies, QuikChange II Site-Directed Mutagenesis Kit). The mutation was verified by sequencing. For surface plasmon resonance experiments, the GST was removed using PreScission protease, yielding Cx43 CT protein (wild-type or mutant).
as §1

Cx43-HeLa = format: cell-based
Method: The first tests of JM1 and JM2 were performed and the experiments centered on the basic cell biology of the peptides.

[3] = test system: Neonatal cardiac fibroblasts (NHFs); experiment: Collagen synthesis by neonatal cardiac fibroblasts, Western blotting; format: cell-based, rat
Excerpt: Isolation and treatment of Neonatal Cardiac Fibroblasts with Cx43 based peptides (peptides used included ACT1, JM1, JM2, Antennapedia [ANT], reverse ACT1 [Rev], poly Arginine [poly r]). Said peptides with and without internalization vectors can be loaded into the provided EVs and can elicit results similar to those observed for naked peptide as follows. Neonatal cardiac fibroblasts (NHFs) were isolated from 3-4 day old rat hearts by collagenase digestion (100 U/mL) and differential attachment as previously described (Borg et ah, 1984). All cells were maintained in Dulbecco's Modified Eagle Medium (DMEM) supplemented with 10% Fetal Bovine Serum and 100 U/mL penicillin G and 100 μg/mL streptomycin and used prior to passage four. For experiments, 40,000 NHFs were plated into the wells of a 24-well tissue culture plate and grown for 24-48 hours. On the day of treatment, media was removed from each well and replaced with fresh media containing 50 μg/mL L-ascorbic acid-2-phosphate; Sigma Chemical Co., St. Louis, MO). The appropriate volume of each peptide (resuspended in sterile, deionized 18 MQ resistivity water) was added to achieve the desired final concentration (30, 90, 180 µM peptide concentrations were tested). Culture plates were incubated overnight in a 37° C. incubator with 5% C02.
Protein Isolation and Examination of Collagen Synthesis by Western Blotting. Conditioned culture media was collected from each well and stored at −20° C. for analysis of soluble collagen. Cellular protein, including insoluble collagen and collagen still within the NHFs, were isolated by adding 100-200 μL, of cell lysis buffer (0.01 M Tris, pH 7.4, 0.001 M Sodium Orthovanadate, 1% sodium dodecylsulfate [SDS]) to each well and incubating 10 minutes at room temperature. Prior to addition, cell lysis buffer was warmed to facilitate solubilization of SDS and 100 u L of Halt protease inhibitor (Pierce Biotechnology, Rockford, IL) was added per 10 mL buffer to be used. After incubation, the well bottoms were scraped and liquid transferred to a microcentrifuge tube for storage at −20° C. Protein concentrations of cell lysates were determined using a Micro BCA assay (Pierce). SDS-PAGE samples were prepared by combining either 10 μg of cell lysate or 30 μL of conditioned media with XT loading buffer (BioRad, Hercules, CA), dithiothreitol and boiled for five minutes. Samples were loaded onto 3-8% Tris-Acetate Criterion X T gels (BioRad, Hercules, CA) and proteins separated at 140V. After electrophoresis, proteins were transferred onto […] nitrocellulose membranes (BioRad) overnight at room temperature (Transfer buffer: 25 mM Tris, 192 mM Glycine, 20% Methanol, 0.01% SDS). The presence of collagen was determined by probing the membranes with a rabbit anti-mouse collagen type I antibody (MD Biosciences) at 1:20,000 dilution in blocking buffer (5% milk in Tris-buffered saline) followed by a goat anti-rabbit IgG horseradish peroxidase conjugated antibody at 1:100,000 (Southern Biotech Associates) and detection with Pierce SuperSignal Femto West detection reagent (Pierce). To assess the activity of JM1 and JM2 peptides with respect to collagen production and their potential in mediating wound healing, cardiac fibroblasts were treated with these two peptides and their effectiveness compared to that for the previous described Cx43 peptide ACT1. NHFs were treated with various concentrations of JM1, JM2, ACT1, and ANT (Antennapedia) peptides, vehicle (water) or left untreated and the production of collagen both in the culture media and cell-associated collagen assessed by western blotting. […] To evaluate the impact of the poly-Arginine (poly-r)N-terminal sequence on JM1 and Jm2 activity, NHF cells were treated with a poly-r peptide.

Cx43-Hela cells = experiment: Cx43 and ZO-1 immunofluorescent labeling; format: cell-based; settings: 10 μM for 2, 4, 24, or 48 hours
Method: Given that the 10UM concentration of peptide was not toxic to cells, the inventors treated Cx43-Hela cells with 10 μM JM1 or JM2 for 2, 4, 24, or 48 hours followed by fixation and immunofluorescent labeling of Cx43 and ZO-1. Said peptides can be loaded into the provided EVs and can elicit results similar to those observed for naked peptide as follows. […] However, the most striking effects were on ZO-1 organization. In control cells ZO-1 localized to cell borders, often at sites of small, finger-like projections between the cells. Cytoplasmic ZO-1 was also notable. In JM-treated cells a strong contrast in the ratio of cell border to cytoplasmic ZO-1 was found, with relative levels at cell borders being increased over controls. […] There was also a noticeable increase in the number of cells per area of field, supporting the earlier observation that JM2 treated cells appeared to proliferate and survive at an increased rate.

Nc1ncnc2c1ncn2[C@@H]1O[C@H](COP(=O)(O)OP(=O)(O)OP(=O)(O)O)[C@@H](O)[C@H]1O [ATP]
inflammatory infiltrate (silicon wafer implants): profound increase in inflammatory infiltrate; also recorded: more inflammatory infiltrate than the surgery alone

RQPKIWFPNRRKPWKK RPRPAALEI (RQPKIWFPNRRKPWKKRPRPAALEI) [M2 AALEI]
Cx43 S368 phosphorylation [1]: neither M1 AALAI (SEQ ID NO: 134), M2 AALEI (SEQ ID NO: 135) nor M3 DDLAI (SEQ ID NO: 136) increased Cx43 S368 phosphorylation
SPR binding to Cx43 CT [2]: abrogated peptide interaction with Cx43 CT; also recorded: limited ability to bind Cx43 CT
Cx43 CT melt temperature (Tm) (Cx43 CT): no propensity to alter Cx43 CT thermal stability
PDZ2 melt temperature (Tm) (ZO-1 PDZ2): did not alter the melt temperature of PDZ2
SPR binding to Cx43 CT-KK/QQ (Cx43 CT-KK/QQ): unable mediate interactions

VFFKGVKDRV [JM1]
toxicity (cell death) (Cx43-HeLa): no obvious toxicity
mature type I collagen in conditioned media ([3]; 180 μM): no mature type I collagen was detected
mature type I collagen in conditioned media ([3]; 30, 90, 180 µM): dose-dependent decrease in the production of mature, type I collagen
collagen produced versus poly-r peptide ([3]; about 90 μM): less than half of that produced by cells treated with the poly-r peptide
mature type I collagen in cell lysate ([3]; versus ACT1 peptide): more profound reduction in the amount of mature type I collagen
Cx43 and ZO-1 localization (Cx43-Hela cells): greater cytoplasmic Cx43 was observed; also recorded: ZO-1 cell border labeling was enhanced
tissue reaction zone (silicon wafer implants): substantially narrower tissue reaction zone

apyrase
inflammatory infiltrate (silicon wafer implants): significantly reduced the inflammatory infiltrate

— patent US20250221936A1, “ENGINEERED HEMICHANNELS, ENGINEERED VESICLES, AND USES THEREOF” (VIRGINIA TECH INTELLECTUAL PROPERTIES, INC., priority 2018, published 2025)
